Reference: patent US8871728B2, “Non-peptide macrocyclic histone deacetylese (HDAC) inhibitors and methods of making and using thereof” (Georgia Tech Research Corporation, priority 2007, dated 2014)
Values after ≈ are worked out from the molar mass of the structure shown. Values joined by “and” are separate entries in the source; they are usually repeats but may differ in a detail not shown here. Identical values can stand only once. Like-named read-outs stand apart in the source and are kept apart here.

Key:
HDAC6 = HDAC6 (Homo sapiens (Human), UniProt Q9UBN7); experiment: SAMDI mass spectrometry HDAC inhibition assay; format: biochemical; conditions: for inhibition at 10 µM: read-out: HDAC6 % inhibition
Sequence of HDAC6 (Q9UBN7 whole entry): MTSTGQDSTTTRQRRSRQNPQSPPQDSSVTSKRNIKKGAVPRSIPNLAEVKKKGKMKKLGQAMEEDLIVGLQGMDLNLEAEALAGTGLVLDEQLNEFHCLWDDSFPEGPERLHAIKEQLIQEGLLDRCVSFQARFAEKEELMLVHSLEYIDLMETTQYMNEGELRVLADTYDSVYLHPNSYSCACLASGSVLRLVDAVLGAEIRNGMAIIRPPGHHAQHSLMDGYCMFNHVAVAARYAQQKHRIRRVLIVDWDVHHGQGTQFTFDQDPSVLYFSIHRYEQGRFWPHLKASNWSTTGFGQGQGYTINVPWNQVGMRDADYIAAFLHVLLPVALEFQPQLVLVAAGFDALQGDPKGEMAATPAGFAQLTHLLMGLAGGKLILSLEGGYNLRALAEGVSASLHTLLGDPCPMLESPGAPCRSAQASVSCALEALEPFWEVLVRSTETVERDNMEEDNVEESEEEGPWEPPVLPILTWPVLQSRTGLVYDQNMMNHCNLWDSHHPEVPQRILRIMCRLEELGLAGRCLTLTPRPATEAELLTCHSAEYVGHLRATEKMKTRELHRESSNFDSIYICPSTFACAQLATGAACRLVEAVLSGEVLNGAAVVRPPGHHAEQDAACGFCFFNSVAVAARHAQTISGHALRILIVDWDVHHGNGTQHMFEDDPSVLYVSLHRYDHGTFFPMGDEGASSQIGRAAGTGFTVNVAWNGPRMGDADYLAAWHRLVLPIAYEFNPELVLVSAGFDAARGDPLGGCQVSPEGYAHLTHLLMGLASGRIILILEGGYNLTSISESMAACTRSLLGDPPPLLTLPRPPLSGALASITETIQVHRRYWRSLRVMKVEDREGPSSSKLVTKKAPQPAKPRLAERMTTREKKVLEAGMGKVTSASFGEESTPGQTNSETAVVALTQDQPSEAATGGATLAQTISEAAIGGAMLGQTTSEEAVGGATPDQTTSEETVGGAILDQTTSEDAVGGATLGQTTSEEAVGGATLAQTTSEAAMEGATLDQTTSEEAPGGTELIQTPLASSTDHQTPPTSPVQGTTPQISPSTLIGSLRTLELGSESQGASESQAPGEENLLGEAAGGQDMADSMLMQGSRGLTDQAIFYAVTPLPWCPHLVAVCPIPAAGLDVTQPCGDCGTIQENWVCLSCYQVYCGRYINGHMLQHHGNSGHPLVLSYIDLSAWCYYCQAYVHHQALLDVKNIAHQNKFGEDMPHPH
Protocol: (§1) There is precedence that fluorescently labeled substrates can perturb enzyme activity and the effect of inhibitors. […] Additionally, 3-hydroxypyridine-2-ones are highly colored solids and might lead to false positive signals. Mindful of these facts, a label-free SAMDI (self-assembled monolayers for MALDI) mass spectrometry assay was also used to assess HDAC inhibition.
The SAMDI technique, wherein self-assembled monolayers (SAM) of alkanethiolates on gold are analyzed by matrix assisted laser desorption/ionization (MALDI) mass spectrometry, has been widely used to characterize many biochemical activities, including the deacetylase enzyme family. The SAMDI assay was used to measure the inhibition constant (K1) of fragments against HDAC1, HDAC6 and HDAC8 using a previously identified preferred HDAC substrate.

HDAC8 = HDAC8 (Homo sapiens (Human), UniProt Q9BY41); experiment: SAMDI mass spectrometry HDAC inhibition assay; format: biochemical
Sequence of HDAC8 (Q9BY41 whole entry): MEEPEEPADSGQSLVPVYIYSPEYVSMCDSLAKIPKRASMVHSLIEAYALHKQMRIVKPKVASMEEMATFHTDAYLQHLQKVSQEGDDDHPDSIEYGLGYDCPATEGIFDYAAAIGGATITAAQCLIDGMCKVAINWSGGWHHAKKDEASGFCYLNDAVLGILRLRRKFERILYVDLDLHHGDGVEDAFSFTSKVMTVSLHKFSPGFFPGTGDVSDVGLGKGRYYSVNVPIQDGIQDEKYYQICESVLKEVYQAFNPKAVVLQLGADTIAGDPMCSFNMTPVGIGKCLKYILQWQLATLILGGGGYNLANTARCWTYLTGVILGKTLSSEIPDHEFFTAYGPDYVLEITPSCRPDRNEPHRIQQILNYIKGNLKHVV
Protocol: as §1
(§2) The SAMDI technique, wherein self-assembled monolayers (SAM) of alkanethiolates on gold are analyzed by matrix assisted laser desorption/ionization (MALDI) mass spectrometry, has been widely used to characterize many biochemical activities, including the deacetylase enzyme family.

HDAC1 = HDAC1 (Homo sapiens (Human), UniProt Q13547); experiment: SAMDI mass spectrometry HDAC inhibition assay; format: biochemical; conditions: for HDAC1 inhibition, symbol: SAMDI; for HDAC1 % inhibition: at 10 μM, given if the IC50 was above 10 μM
Sequence of HDAC1 (Q13547 whole entry): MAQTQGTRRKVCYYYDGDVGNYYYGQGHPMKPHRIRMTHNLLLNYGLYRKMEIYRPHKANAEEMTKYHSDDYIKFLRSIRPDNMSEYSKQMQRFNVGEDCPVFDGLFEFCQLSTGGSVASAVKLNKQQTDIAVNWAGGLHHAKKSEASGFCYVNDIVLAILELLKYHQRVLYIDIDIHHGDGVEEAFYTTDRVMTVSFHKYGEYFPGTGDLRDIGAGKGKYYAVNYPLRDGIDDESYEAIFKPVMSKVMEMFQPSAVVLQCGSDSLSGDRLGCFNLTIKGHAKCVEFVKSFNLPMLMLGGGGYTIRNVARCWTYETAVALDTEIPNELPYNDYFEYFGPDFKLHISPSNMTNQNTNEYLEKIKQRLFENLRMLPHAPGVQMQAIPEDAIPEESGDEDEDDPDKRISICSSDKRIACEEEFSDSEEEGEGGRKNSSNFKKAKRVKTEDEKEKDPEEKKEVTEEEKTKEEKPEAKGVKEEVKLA
Protocol: as §1, §2

[1] = system: Jurkat (T cell leukemia overexpressing HDAC8); experiment: Anti-cancer activity screen; format: cell-based
[2] = system: DU 145 (androgen independent prostate cancer); experiment: Anti-cancer activity screen; format: cell-based
[3] = system: LNCaP (androgen dependent prostate cancer); experiment: Anti-cancer activity screen; format: cell-based
[4] = system: promastigote stage of L. donovani; experiment: Antileishmanial Alamar blue fluorometric assay; format: cell-based
Protocol: (§3) The compounds described herein were also evaluated for parasitic activity against Plasmodium falciparum and Leismania donovani. P. falciparum and L. donovani are the causative parasites of malaria and leishmaniasis, two human diseases which constitute a serious threat to public health in tropical and sub-tropical countries. Antimalarial activity was evaluated in vitro using chloroquine-sensitive (D6, Sierra Leone) and chloroquine-resistant (W2, Indochina) strains of P. falciparum. Antileishmanial activity was evaluated in vitro against the promastigote stage of L. donovani.
(§4) Plasmodium growth inhibition was determined by a parasite lactate dehydrogenase assay using Malstat reagent. Inhibition of viability of the promastigote stage of L. donovani was determined using standard Alamar blue assay, modified to a fluorometric assay.
as §3, with “Macrocyclic histone deacetylase inhibitors” for “The compounds described herein”, “were” for “were also”
as §4

[5] = system: Plasmodium falciparum (D6 clone), chloroquine-sensitive; experiment: Plasmodium growth inhibition, parasite lactate dehydrogenase assay (Malstat); format: cell-based; conditions: selective toxicity index, Vero versus D6
Protocol: as §3, §4
as §3, with “Macrocyclic histone deacetylase inhibitors” for “The compounds described herein”, “were” for “were also”
as §4

[6] = Table 14, read-out: HDAC 8 (nm)
[7] = Homo sapiens, Jurkat, read-out: Jurkat (μm)
[8] = Homo sapiens, DU-145, calculated IC50 above 20 μM (highest concentration tested) also reported as >20
[9] = calculated IC50 above 20 μM (highest concentration tested) also reported as >20
[10] = Table 14, read-out: HDAC 6 (nm)

| Compound | IC50 (HDAC8; [6]) [µM] | HDAC1 inhibition, symbol (HDAC1) | IC50 [1, 7] [µM] | IC50 [2, 8] [µM] | IC50 ([3]; Homo sapiens, LNCaP) [µM] | IC50 (HDAC6; SAMDI, read-out: HDAC6 IC50) [µM] | IC50 (HDAC6; [10]) | IC50 (HDAC8; SAMDI, read-out: HDAC8 IC50) [µM] | IC50 ([1]; read-out: Jurkat (μm)) [µM] | IC50 [3] [µM] | also measured |
| --- | --- | --- | --- | --- | --- | --- | --- | --- | --- | --- | --- |
| CN(C)c1ccc(-c2ccc(Cn3cccc(O)c3=S)cc2)cc1 [Compound 149g, 1-(4-Dimethylamino-(1,1′-biphenylmethyl))-3-hydroxyoxypyridine-2-thione] | 2.86 ± 0.944 | NI (No significant Inhibition (below 20% Inhibition)) | 10.6 ± 0.97 | > 20 | 16.2 ± 1.11 |  |  |  |  |  | HDAC6 inhibition, symbol (HDAC6; SAMDI): NI (No significant Inhibition (below 20% Inhibition)); IC50 [2, 9]: 22.8 ± 3.8 µM |
| Oc1cccn(Cc2cn(-c3ccccc3)nn2)c1=S [Compound 154a, 1-Phenyltriazolylmethyl-3-hydroxypyridine-2-thione] |  |  | 4.68 ± 0.34 | 24 ± 7.47 | 13.1 ± 1.51 |  |  |  |  |  | inhibition at 10 µM (HDAC6): 41%; IC50 [2, 9]: > 20 µM |
| Oc1cccn(CCCCCn2cc(-c3ccccc3)nn2)c1=S [Compound 162d, 1-Phenyltriazolylpentyl-3-hydroxypyridine-2-thione] | 0.917 ± 0.139 | NI (No significant Inhibition (below 20% Inhibition)) |  |  |  | 0.911 | 0.911 ± 0.173 µM | 0.917 | 3.27 ± 0.6 | 5.43 ± 0.47 | HDAC8 activity difference between 162d and 162e (HDAC8; SAMDI): ~7 fold; HDAC1 % inhibition (HDAC1): 30%; IC50 [2]: 9.33 ± 0.96 µM |
| Oc1cccn(CCCCCCCn2cc(-c3ccccc3)nn2)c1=S [Compound 162f, 1-Phenyltriazolylheptyl-3-hydroxypyridine-2-thione] | 1.38 ± 0.205 | NI (No significant Inhibition (below 20% Inhibition)) |  |  |  | 0.955 ± 0.15 | 0.955 ± 0.15 µM | 0.232 ± 0.019 | 9.04 ± 1.31 | 11 ± 1.92 | HDAC1 % inhibition (HDAC1): 35%; IC50 [2]: 17.7 ± 3.28 µM |
| N#Cc1cccc(-c2cn(CCCCCn3cccc(O)c3=S)nn2)c1 [Compound 167e, 1-(3-Benzonitrile)triazolylpentyl-3-hydroxypyridine-2-thione] | 2.4 ± 0.263 |  | 5.18 ± 1.18 |  | 4.95 ± 0.43 | 0.356 | 0.637 µM and 0.356 µM | 2.83 | 3.44 ± 0.57 | 3.49 ± 0.34 |  |
| Oc1cccn(Cc2ccc(Cn3cc(-c4ccccc4)nn3)cc2)c1=S [Compound 168] | 5.47 ± 1.6 | NI (No significant Inhibition (below 20% Inhibition)) |  | 16.1 ± 2.24 | 7.8 ± 0.55 |  | 0.534 ± 0.185 µM |  |  |  | IC50 ([1]; Homo sapiens, Jurkat; read-out: Jurkat (μm)): 6.55 ± 0.91 µM |
| N=C(N)c1ccc(OCCCCCOc2ccc(C(=N)N)cc2)cc1 [Pentamidine, pentamidine, reference compound] |  |  |  |  |  |  |  |  |  |  | IC50 ([4]; Leishmania donovani, promastigotes, read-out: Antileshmanial activity IC50): 0.9 µg/mL (≈ 2.64 µM); Antileshmanial activity IC50 ([4]; promastigotes): 1.4 µg/mL |
| O=C(CCCCCCC(=O)Nc1ccccc1)NO [SAHA, suberoylanilide hydroxamic acid, reference compound] |  |  |  |  |  |  |  |  |  |  | IC90 ([4]; Leishmania donovani, read-out: Antileshmanial activity IC90 (μg/ml)): 50 µg/mL (≈ 189 µM); inhibition at 10 µM (HDAC6): 95%; S.I. D6 [5]: 4.8 |
